The subject of one data set is Myzus persicae. In words: Myzus test (MYZUPE spray treatment). The format is in vivo. As for the experimental part: Myzus test (Myzupe spray treatment)
After 6 days, the efficacy in % is determined.
Myzus Test (MYZUPE Spray Treatment)

In a further data set the test system is Musca domestica. The data set can be described thus: Musca domestica test (MUSCDO). The format is in vivo. As for the experimental part:
Musca domestica Test (MUSCDO)
Solvent: dimethyl sulphoxide
Vessels containing a sponge treated with the active compound preparation of the desired concentration are populated with adult Musca domestica.
After 2 days, the kill in % is determined.
Vessels containing a sponge treated with the active compound formulation of the desired concentration are populated with adult Musca domestica.
After the desired period of time, the kill in % is determined.

The next data set deals with Heliothis armigera. In words: Heliothis armigera spray test (HELIAR). The following applies: Helicoverpa armigera, 168 h, 7 dat. The format is in vivo. From the text:
Heliothis armigera Spray Test (HELIAR)
Solvent: 7 parts by weight of dimethylformamide
Emulsifier: 2 parts by weight of alkylaryl polyglycol ether
(§1) If the addition of ammonium salts or/and penetrants is required, these are in each case added in a concentration of 1000 ppm to the solution of the preparation.

The subject of data set [1] is Frankliniella occidentalis. In words: Frankliniella occidentalis spray test (FRANOC). The format is in vivo. The following applies: 168 h, 7 dat.
From the text: Frankliniella occidentalis Spray Test (FRANOC)
as §1

Data set [2] in a line: log P by HPLC, EEC Directive 79/831 Annex V.A8, method a). The conditions noted are these: reversed-phase C18 HPLC column; cell marked a): HPLC, reversed-phase C18, acetonitrile/water with formic acid, gradient 10% to 95% acetonitrile. The class given is physicochemical. The essentials:
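Reversed-phase C18 HPLC (50*4.6, 1.8 micron) per EEC Directive 79/831 Annex V.A8, acetonitrile/water with formic acid, gradient 10% to 95% acetonitrile over 4.25 min then 1.25 min hold; 55° C, 2.0 ml/min, with MS detection.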

As a reminder, the inhibition is how much of the control response was suppressed. The chromatographic logP is a lipophilicity value derived from retention on a column. A low value points to a more hydrophilic compound. In the case of `Cn1nc(C(F)(F)C(F)(F)F)c(C(F)(F)F)c1C(=O)Nc1ccc(Cl)c(C(=O)NC2(C#N)CC2)c1` [Example 10], the inhibition at 20 g/ha in the data set with Myzus persicae (Myzus persicae, 144 h, MYZUPE, 20 g/ha, 6 dat) came to 80%; in data set [1] (20 g/ha), 90%. Besides, in the data set with Myzus persicae (Myzus persicae, 144 h, MYZUPE, 100 g/ha, 6 dat), the inhibition at 100 g/ha was 100%. Further, the inhibition at 500 g/ha with Myzus persicae (Myzus persicae, 144 h, MYZUPE, 500 g/ha, 6 dat) turned out to be 100%; in data set [1] (500 g/ha), 100%. This molecule gave an efficacy in % with Myzus persicae (application rate 500 g/ha, after 6 days) of 100%. Also, the “kill in % (efficacy)” value in the data set on Musca domestica (100 ppm, after 2 days) is reported as 100%. The inhibition at 100 ppm with Musca domestica (Musca domestica, 48 h, MUSCDO, 2 dat) came out at 100%; in the data set with Heliothis armigera (100 ppm), 100%. This molecule had an inhibition at 20 ppm with Heliothis armigera (20 ppm) of 100%. Moreover, the chromatographic logP in data set [2] came to 3.27.

Source of the values: US9126945B2, “N-(3-carbamoylphenly)-1H-pyrazole-5-carboxamide derivatives and the use thereof for controlling animal pests” (BAYER INTELLECTUAL PROPERTY GMBH, priority 2011, dated 2015).
